Laboratory results taken from patent US20110039763A1, “TARGETED ANTIMICROBIAL MOIETIES” (C3 JIAN, INC., priority 2009, published 2011).
“Also recorded” adds a separate entry of the source. Square brackets hold non-standard residues; d marks the D form. Ends that are not written are not given here. dOrn = NCCC[C@@H](N)C(=O)O; Orn = NCCC[C@H](N)C(=O)O

Assays:
microorganisms [1] = test: Morphology, biofilm and growth disrupting peptides (Table 5); format: cell-based; parameters: key: A: Peptide aggregates; B: Less hyphal formation; Clumps; Diffuse clumps and small polyps; F: Diffuse growth; H: Thin; I: Growth inhibition; Microcolony formation; Rippled; Small polyps; Thick; W: Halo formation on top, microlonies on bottom
Description: In certain embodiments peptides that induce alterations in phenotype or other biological activities can also be used as antimicrobial effector moieties.

microorganisms [2] = test: Targeting peptide binding to target microorganisms (Tables 3, 10, 12); details: microorganism(s) the targeting peptide binds, preferably 1x PBS
[3] = binding in aqueous buffers varied with peptide solubility
[4] = binding in aqueous buffers that varied with peptide solubility

Substance | Organism, effect (microorganisms [1]; S. pneumoniae) | Target(s) (microorganisms [2]; [3]) | other results
PF-643 (chain 1 VRCRL; chain 2 VRCRL; Peptide with targeting and/or antimicrobial activity) | S. pneumoniae (R) | Mycobacteria spp | Organism, effect (microorganisms [1]; E. faecalis): E. faecalis (R); Organism, effect (microorganisms [1]; MRSA): MRSA (C)
PF-644 (chain 1 TSGLIIGENGLNGL; chain 2 TSGLIIGENGLNGL; Peptide with targeting and/or antimicrobial activity) | S. pneumoniae (H) | Mycobacteria spp | 
PF-645 (chain 1 SNSVQQG; chain 2 SNSVQQG; Peptide with targeting and/or antimicrobial activity) | S. pneumoniae (I) | Mycobacteria spp | Organism, effect (microorganisms [1]; C. albicans): C. albicans (B)
PF-646 (chain 1 APASPGRRPG; chain 2 APASPGRRPG; Peptide with targeting and/or antimicrobial activity) | S. pneumoniae (H) | Mycobacteria spp | Organism, effect (microorganisms [1]; C. albicans): C. albicans (B)
PF-647 (chain 1 GTFLGQKCAAATAS; chain 2 GTFLGQKCAAATAS; Peptide with targeting and/or antimicrobial activity) | S. pneumoniae (R) | Mycobacteria spp | Organism, effect (microorganisms [1]; C. albicans): C. albicans (B)
PF-649 (chain 1 CPRYPFVDVGPAGPWRARWRVGS; chain 2 CPRYPFVDVGPAGPWRARWRVGS; Peptide with targeting and/or antimicrobial activity) |  | Mycobacteria spp | Organism, effect (microorganisms [1]; E. faecalis): E. faecalis (R)
PF-651 (chain 1 PRWPTGAGRHR; chain 2 PRWPTGAGRHR; Peptide with targeting and/or antimicrobial activity) | S. pneumoniae (H) | Mycobacteria spp | 
PF-652 (chain 1 FLAPARPDLQAQRQALAQ; chain 2 FLAPARPDLQAQRQALAQ; Peptide with targeting and/or antimicrobial activity) | S. pneumoniae (A) | Mycobacteria spp | 
PF-653 (chain 1 QSVHPLPAETPVADVI; chain 2 QSVHPLPAETPVADVI; Peptide with targeting and/or antimicrobial activity) | S. pneumoniae (H) | Mycobacteria spp | 
PF-654 (chain 1 LSGRLAGRR; chain 2 LSGRLAGRR; Peptide with targeting and/or antimicrobial activity) | S. pneumoniae (A) | Mycobacteria spp | Organism, effect (microorganisms [1]; C. albicans): C. albicans (B); Organism, effect (microorganisms [1]; MRSA): MRSA (R)
PF-656 (chain 1 RGMFVPFHDVDCVQ; chain 2 RGMFVPFHDVDCVQ; Peptide with targeting and/or antimicrobial activity) |  | Mycobacteria spp | Organism, effect (microorganisms [1]; MRSA): MRSA (R)
PF-657 (chain 1 YVANYTITQFGRDFDDRLAVAIHFA; chain 2 YVANYTITQFGRDFDDRLAVAIHFA; Peptide with targeting and/or antimicrobial activity) | S. pneumoniae (H) | Mycobacteria spp | Organism, effect (microorganisms [1]; C. jeikeium): C. jeikeium (D); Organism, effect (microorganisms [1]; E. faecalis): E. faecalis (D); Organism, effect (microorganisms [1]; MRSA): MRSA (D); Organism, effect (microorganisms [1]; S. epidermidis): S. epidermidis (C)
PF-658 (chain 1 PTTPPPTTPPEIPTGGTVIST; chain 2 PTTPPPTTPPEIPTGGTVIST; Peptide with targeting and/or antimicrobial activity) | S. pneumoniae (H) | Mycobacteria spp | Organism, effect (microorganisms [1]; MRSA): MRSA (R)
PF-659 (chain 1 TVIST; chain 2 TVIST; Peptide with targeting and/or antimicrobial activity) | S. pneumoniae (C) | Mycobacteria spp | Organism, effect (microorganisms [1]; B. subtilis): B. subtilis (H); Organism, effect (microorganisms [1]; MRSA): MRSA (R); Organism, effect (microorganisms [1]; S. epidermidis): S. epidermidis (M)
PF-660 (chain 1 TDPQATAAPRRRTSPR; chain 2 TDPQATAAPRRRTSPR; Peptide with targeting and/or antimicrobial activity) | S. pneumoniae (H) | Mycobacteria spp | 
PF-661 (chain 1 PDEDIRRRAILPPAGPCRPMSPE; chain 2 PDEDIRRRAILPPAGPCRPMSPE; Peptide with targeting and/or antimicrobial activity) |  | Mycobacteria spp | Organism, effect (microorganisms [1]; MRSA): MRSA (R)
PF-662 (chain 1 GKQSRAHGPVASRREFRRKSG; chain 2 GKQSRAHGPVASRREFRRKSG; Peptide with targeting and/or antimicrobial activity) | S. pneumoniae (A) | Mycobacteria spp | 
PF-C068 (LNLFASI; Peptide with targeting and/or antimicrobial activity) |  | A. naeslundii; also recorded: F. nucleatum; also recorded: S. mutans | 
PF-C080 (INIPGLF; Peptide with targeting and/or antimicrobial activity) |  | A. naeslundii; also recorded: F. nucleatum; also recorded: S. mutans | 
PF-C093 (EKLGTMV; Peptide with targeting and/or antimicrobial activity) |  | A. naeslundii; also recorded: F. nucleatum; also recorded: S. mutans | 
PF-C134 (NELMKYPATLTATATTPGIKYSHLCSVCL; Peptide with targeting and/or antimicrobial activity) |  | A. naeslundii; also recorded: F. nucleatum; also recorded: P. gingivalis; also recorded: S. mutans; also recorded: T. denticola | 

Substance | Organism, effect (microorganisms [1]; S. pneumoniae) | Target(s) (microorganisms [2]; [3]) | other results
PF-C160 (AASGFTYCASNGVWHPY; Peptide with targeting and/or antimicrobial activity) |  | F. nucleatum | 
PF-C259 (AEIQPHCLSVL; Peptide with targeting and/or antimicrobial activity) |  | F. nucleatum; also recorded: S. mutans | 
PF-C271 (FFPSYYSIIITYF; Peptide with targeting and/or antimicrobial activity) |  | A. naeslundii; also recorded: F. nucleatum; also recorded: P. gingivalis; also recorded: S. mutans; also recorded: T. denticola | 
PF-C273 (KNMLKRRMKQKRLFDEEDRLRVLSKYTKSYY; Peptide with targeting and/or antimicrobial activity) |  | A. naeslundii; also recorded: P. gingivalis; also recorded: S. mutans; also recorded: T. denticola | 
PF-C285 (FTIIELKKQKIKHGENNKKTAHPLNEPFCARA; Peptide with targeting and/or antimicrobial activity) |  | A. naeslundii; also recorded: F. nucleatum; also recorded: P. gingivalis; also recorded: S. mutans; also recorded: T. denticola | 
PF-S004 (VLLNIFRTLLEFFSPSNAPGAEDVPLPDTQA; Peptide with targeting and/or antimicrobial activity) |  | S. epidermidis and MRSA and C. jeikeium | 
PF-S007 (VVAGVVLLTALAVGSKRKEKKQIKEIQRLLAATR; Peptide with targeting and/or antimicrobial activity) |  | S. epidermidis and MRSA | 
PF-S015 (IENLERGARRPP; Peptide with targeting and/or antimicrobial activity) |  | S. epidermidis and MRSA and C. jeikeium | 
PF-S018 (GMPQIPRLRI; Peptide with targeting and/or antimicrobial activity) |  | S. epidermidis and M. luteus and C. albicans and MRSA and E. faecalis and C. jeikeium and C. jejuni | 
PF-S023 (MAEDERRALKRRTNRGRTRTRKRITV; Peptide with targeting and/or antimicrobial activity) |  | S. epidermidis and MRSA | 
PF-S024 (SKRGRKRKDRRKKKANHGKRPNS; Peptide with targeting and/or antimicrobial activity) |  |  | Target(s) (microorganisms [2]; [4]): Corynebacteria
PF-S026 (TELKYNGEEYLLLTQRDILAVIEK; Peptide with targeting and/or antimicrobial activity) |  | S. epidermidis and MRSA and C. jeikeium | 
PF-S029 (TSDTQSQSPWLFDNADIVNIYPVQLMHSSDND; Peptide with targeting and/or antimicrobial activity) |  | M. luteus; also recorded: P. mirabilis; also recorded: E. coli; also recorded: C. albicans; also recorded: C. jeikeium; also recorded: C. jejuni | 
Py Pf 12 ([dS]KG[Orn][dS]SGK[dOrn]ES; not fully specified (bridges)) |  |  | Target(s) (microorganisms [2]; [4]): P. fluorescens
TT-305 (ARNALNMRDVPVDAAIIGIIDGMDEE; Peptide with targeting and/or antimicrobial activity) |  |  | Target(s) (microorganisms [2]; [4]): F. nucleatum
TT-306 (KILNEAEGKLLKVIEKNGEIDIEEI; Peptide with targeting and/or antimicrobial activity) |  |  | Target(s) (microorganisms [2]; [4]): F. nucleatum
TT-307 (NGDKKAKEELDKWDEVIKELNIQF; Peptide with targeting and/or antimicrobial activity) |  |  | Target(s) (microorganisms [2]; [4]): F. nucleatum
TT-308 (GLVIIPNLIALIILFSQVRQQTKDYFSNPKLSSR; Peptide with targeting and/or antimicrobial activity) |  |  | Target(s) (microorganisms [2]; [4]): F. nucleatum
TT-309 (EPLPLTKYDKKDTEMKKVFKEILAGKVGYEKEEE; Peptide with targeting and/or antimicrobial activity) |  |  | Target(s) (microorganisms [2]; [4]): F. nucleatum
TT-310 (TKLKKNNKLLSAKKENTLHTKDK; Peptide with targeting and/or antimicrobial activity) |  |  | Target(s) (microorganisms [2]; [4]): F. nucleatum
TT-311 (AIFDAMHNL; Peptide with targeting and/or antimicrobial activity) |  |  | Target(s) (microorganisms [2]; [4]): S. mutans; also recorded: S. sobrinus
